Measurements taken from ChEMBL document CHEMBL1144896 (2003).

Tests used:
NCI-H1299 [1] = assay: hTERT-SEAP (Human telomerase reverse transcriptase-SEAP) activity in non-small cell lung cancer H1299 cell at 2.8 uM concentration and level of cell viability determined in MTT assay; assay type: functional
BJ [2] = assay: pPCMV-SEAP (cytomegalovirus-SEAP) activity in immortalized hTERT-BJ1 at 2.8 uM concentration and level of cell viability determined in MTT assay; assay type: functional, Homo sapiens
BJ [3] = assay: hTERT-SEAP (Human telomerase reverse transcriptase-SEAP) activity in immortalized hTERT-BJI at 28.0 uM concentration and level of cell viability determined in MTT assay; assay type: functional
BJ [4] = assay: hTERT-SEAP (Human telomerase reverse transcriptase-SEAP) activity in immortalized hTERT-BJI at 2.8 uM concentration and level of cell viability determined in MTT assay; assay type: functional
BJ [5] = assay: Compound was tested for cytomegalovirus or (pPCMV-SEAP) activity in immortalized hTERT-BJ1 at 280 uM concentration; assay type: functional, Homo sapiens
BJ [6] = assay: pPCMV-SEAP (cytomegalovirus-SEAP) activity in immortalized hTERT-BJ1 at 28 uM concentration and level of cell viability determined in MTT assay; assay type: functional, Homo sapiens
BJ [7] = assay: Compound was tested for cytomegalovirus or (pPCMV-SEAP) activity in immortalized hTERT-BJ1 at 2.8 uM concentration; assay type: functional, Homo sapiens
NCI-H1299 [8] = assay: Compound was tested for human telomerase reverse transcriptase-SEAP (hTERT-SEAP) activity in non-small cell lung cancer H1299 cell at 28.0 uM concentration; assay type: functional
BJ [9] = assay: Compound was tested for cytomegalovirus or (pPCMV-SEAP) activity in immortalized hTERT-BJ1 at 28 uM concentration; assay type: functional, Homo sapiens
BJ [10] = assay: pPCMV-SEAP (cytomegalovirus-SEAP) activity in immortalized hTERT-BJ1 at 280 uM concentration and level of cell viability determined in MTT assay; assay type: functional, Homo sapiens
NCI-H1299 [11] = assay: Compound was tested for human telomerase reverse transcriptase-SEAP (hTERT-SEAP) activity in non-small cell lung cancer H1299 cell at 2.8 uM concentration; assay type: functional
NCI-H1299 [12] = assay: hTERT-SEAP (Human telomerase reverse transcriptase-SEAP) activity in non-small cell lung cancer H1299 cell at 280.0 uM concentration and level of cell viability determined in MTT assay; assay type: functional
NCI-H1299 [13] = assay: Compound was tested for human telomerase reverse transcriptase-SEAP (hTERT-SEAP) activity in non-small cell lung cancer H1299 cell at 280.0 uM concentration; assay type: functional
BJ [14] = assay: hTERT-SEAP (Human telomerase reverse transcriptase-SEAP) activity in immortalized hTERT-BJI at 280.0 uM concentration and level of cell viability determined in MTT assay; assay type: functional
BJ [15] = assay: Compound was tested for human telomerase reverse transcriptase-SEAP (hTERT-SEAP) activity in immortalized hTERT-BJI at 280.0 uM concentration; assay type: functional
BJ [16] = assay: Compound was tested for human telomerase reverse transcriptase-SEAP (hTERT-SEAP) activity in immortalized hTERT-BJI at 28.0 uM concentration; assay type: functional
NCI-H1299 [17] = assay: hTERT-SEAP (Human telomerase reverse transcriptase-SEAP) activity in non-small cell lung cancer H1299 cell at 28 uM concentration and level of cell viability determined in MTT assay; assay type: functional
BJ [18] = assay: Compound was tested for human telomerase reverse transcriptase-SEAP (hTERT-SEAP) activity in immortalized hTERT-BJI at 2.8 uM concentration; assay type: functional
BJ [19] = assay: pPCMV-SEAP (cytomegalovirus-SEAP) activity in immortalized hTERT-BJ1 at 2.0 uM concentration and level of cell viability determined in MTT assay; assay type: functional, Homo sapiens
NCI-H1299 [20] = assay: hTERT-SEAP (Human telomerase reverse transcriptase-SEAP) activity in non-small cell lung cancer H1299 cell at 2.2 uM concentration and level of cell viability determined in MTT assay; assay type: functional
BJ [21] = assay: Compound was tested for human telomerase reverse transcriptase-SEAP (hTERT-SEAP) activity in immortalized hTERT-BJI at 2.2 uM concentration; assay type: functional
BJ [22] = assay: Compound was tested for cytomegalovirus or (pPCMV-SEAP) activity in immortalized hTERT-BJ1 at 220 uM concentration; assay type: functional, Homo sapiens
BJ [23] = assay: pPCMV-SEAP (cytomegalovirus-SEAP) activity in immortalized hTERT-BJ1 at 220 uM concentration and level of cell viability determined in MTT assay; assay type: functional, Homo sapiens
BJ [24] = assay: Compound was tested for cytomegalovirus or (pPCMV-SEAP) activity in immortalized hTERT-BJ1 at 22 uM concentration; assay type: functional, Homo sapiens
NCI-H1299 [25] = assay: Compound was tested for human telomerase reverse transcriptase-SEAP (hTERT-SEAP) activity in non-small cell lung cancer H1299 cell at 220.0 uM concentration; assay type: functional
NCI-H1299 [26] = assay: Compound was tested for human telomerase reverse transcriptase-SEAP (hTERT-SEAP) activity in non-small cell lung cancer H1299 cell at 2.2 uM concentration; assay type: functional
NCI-H1299 [27] = assay: Compound was tested for human telomerase reverse transcriptase-SEAP (hTERT-SEAP) activity in non-small cell lung cancer H1299 cell at 22 uM concentration; assay type: functional
BJ [28] = assay: pPCMV-SEAP (cytomegalovirus-SEAP) activity in immortalized hTERT-BJ1 at 22 uM concentration and level of cell viability determined in MTT assay; assay type: functional, Homo sapiens
BJ [29] = assay: hTERT-SEAP (Human telomerase reverse transcriptase-SEAP) activity in immortalized hTERT-BJI at 2.2 uM concentration and level of cell viability determined in MTT assay; assay type: functional
BJ [30] = assay: hTERT-SEAP (Human telomerase reverse transcriptase-SEAP) activity in immortalized hTERT-BJI at 22 uM concentration and level of cell viability determined in MTT assay; assay type: functional
BJ [31] = assay: Compound was tested for human telomerase reverse transcriptase-SEAP (hTERT-SEAP) activity in immortalized hTERT-BJI at 220.0 uM concentration; assay type: functional
BJ [32] = assay: hTERT-SEAP (Human telomerase reverse transcriptase-SEAP) activity in immortalized hTERT-BJI at 220.0 uM concentration and level of cell viability determined in MTT assay; assay type: functional
NCI-H1299 [33] = assay: hTERT-SEAP (Human telomerase reverse transcriptase-SEAP) activity in non-small cell lung cancer H1299 cell at 220.0 uM concentration and level of cell viability determined in MTT assay; assay type: functional
BJ [34] = assay: Compound was tested for cytomegalovirus or (pPCMV-SEAP) activity in immortalized hTERT-BJ1 at 2.0 uM concentration; assay type: functional, Homo sapiens
BJ [35] = assay: Compound was tested for human telomerase reverse transcriptase-SEAP (hTERT-SEAP) activity in immortalized hTERT-BJI at 22 uM concentration; assay type: functional

Structure (SMILES): CCC(=O)Oc1cccc2c1C(=O)c1cccc(OC(=O)CC)c1C2=O
- Relative viability (NCI-H1299 [1]): 116%
- Relative viability (BJ [2]): 114%
- Relative viability (BJ [3]): 109%
- Relative viability (BJ [4]): 99%
- Relative SEAP activity (BJ [5]): 138%
- Relative viability (BJ [6]): 110%
- Relative SEAP activity (BJ [7]): 101%
- Relative SEAP activity (NCI-H1299 [8]): 107%
- Relative SEAP activity (BJ [9]): 112%
- Relative viability (BJ [10]): 94%
- Relative SEAP activity (NCI-H1299 [11]): 103%
- Relative viability (NCI-H1299 [12]): 87%
- Relative SEAP activity (NCI-H1299 [13]): 97%
- Relative viability (BJ [14]): 93%
- Relative SEAP activity (BJ [15]): 161%
- Relative SEAP activity (BJ [16]): 152%
- Relative viability (NCI-H1299 [17]): 116%
- Relative SEAP activity (BJ [18]): 131%

Structure (SMILES): COc1ccc(CSc2cccc3c2C(=O)c2cccc(SCc4ccc(OC)cc4)c2C3=O)cc1
- Relative viability (BJ [19]): 116%
- Relative viability (NCI-H1299 [20]): 89%
- Relative SEAP activity (BJ [21]): 142%
- Relative SEAP activity (BJ [22]): 100%
- Relative viability (BJ [23]): 52%
- Relative SEAP activity (BJ [24]): 102%
- Relative SEAP activity (NCI-H1299 [25]): 88%
- Relative SEAP activity (NCI-H1299 [26]): 92%
- Relative SEAP activity (NCI-H1299 [27]): 96%
- Relative viability (BJ [28]): 67%
- Relative viability (BJ [29]): 119%
- Relative viability (BJ [30]): 98%
- Relative SEAP activity (BJ [31]): 118%
- Relative viability (BJ [32]): 62%
- Relative viability (NCI-H1299 [33]): 42%
- Relative SEAP activity (BJ [34]): 103%
- Relative SEAP activity (BJ [35]): 141%
